Reference: ChEMBL document CHEMBL4725427, “Synthesis and SAR Studies of 1H-Pyrrolo[2,3-b]pyridine-2-carboxamides as Phosphodiesterase 4B (PDE4B) Inhibitors” (ACS Med Chem Lett, 2020)
Blank lines part the entries; values can stand above or below the molecule they belong to.

What was measured:
[1] = biological target: T1, 3',5'-cyclic-AMP phosphodiesterase 4B (Homo sapiens, UniProt Q07343); assay: Inhibition of recombinant human C-terminal His-tagged N-terminal GST-tagged PDE4B2 expressed in baculovirus infected Sf9 cells at 10 uM by radioligand binding assay relative to control
[2] = Protein binding in human plasma assessed as unbound fraction; format: ADME, cell-free
[3] = Metabolic stability in human liver microsomes assessed as intrinsic clearance; format: ADME, Microsome; conditions: read-out: CLH
[4] = Metabolic stability in mouse liver microsomes assessed as intrinsic clearance; format: ADME, Microsome; conditions: read-out: CLH
[5] = Protein binding in mouse plasma assessed as unbound fraction; format: ADME, cell-free
[6] = Effect on TNFalpha production in C57BL/6 mouse bone marrow derived Macrophage at 1 to 10 uM incubated for 30 mins by ELISA; conditions: 0.5 h
[7] = biological target: T1, 3',5'-cyclic-AMP phosphodiesterase 4B; assay: Inhibition of recombinant human C-terminal His-tagged N-terminal GST-tagged PDE4B2 expressed in baculovirus infected Sf9 cells by radioligand binding assay; format: cell-based

T1 sequence (Q07343 whole entry): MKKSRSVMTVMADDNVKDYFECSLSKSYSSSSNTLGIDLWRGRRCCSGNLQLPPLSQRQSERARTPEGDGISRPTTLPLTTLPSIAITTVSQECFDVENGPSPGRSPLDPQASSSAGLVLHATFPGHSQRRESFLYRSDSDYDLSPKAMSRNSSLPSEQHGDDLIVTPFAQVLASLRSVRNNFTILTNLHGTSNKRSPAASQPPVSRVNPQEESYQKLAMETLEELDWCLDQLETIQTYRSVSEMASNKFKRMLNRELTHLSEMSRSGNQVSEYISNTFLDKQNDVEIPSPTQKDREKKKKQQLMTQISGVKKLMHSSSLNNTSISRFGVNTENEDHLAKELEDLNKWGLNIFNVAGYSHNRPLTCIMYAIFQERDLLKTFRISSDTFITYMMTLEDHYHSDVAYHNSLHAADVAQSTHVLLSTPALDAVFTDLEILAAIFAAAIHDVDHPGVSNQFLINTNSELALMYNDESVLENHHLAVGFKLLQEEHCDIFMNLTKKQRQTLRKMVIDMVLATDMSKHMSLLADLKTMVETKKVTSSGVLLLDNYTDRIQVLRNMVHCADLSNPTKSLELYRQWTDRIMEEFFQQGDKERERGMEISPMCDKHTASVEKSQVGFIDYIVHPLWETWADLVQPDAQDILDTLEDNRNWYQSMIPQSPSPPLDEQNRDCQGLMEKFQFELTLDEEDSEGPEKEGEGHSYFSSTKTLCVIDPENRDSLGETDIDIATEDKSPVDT

- inhibition [1]: 58%
Structure (SMILES): N#Cc1c(F)cc(-n2c(C(=O)NC3CC(F)C3)cc3cccnc32)cc1F (stereo not drawn)

- fraction unbound [2]: 0.026
- CLint scaled [3]: 179 mL/min/kg
- CLint scaled [4]: 157 mL/min/kg
- fraction unbound [5]: 0.006
Structure (SMILES): O=C(NC1CC1)c1cc2cccnc2n1-c1ccc(Cl)c(Cl)c1

Structure (SMILES): O=C(c1cc2cccnc2n1Cc1ccc(Cl)c(Cl)c1)N1CC(F)C1
- inhibition [1]: 72%

Structure (SMILES): N#Cc1c(F)cc(-n2c(C(=O)NC3CC3)cc3cccnc32)cc1F
- fraction unbound [2]: 0.235
- CLint scaled [3]: 31.5 mL/min/kg
- CLint scaled [4]: < 49.5 mL/min/kg
- fraction unbound [5]: 0.096

- inhibition [1]: 37%
Structure (SMILES): O=C(c1cc2cccnc2n1-c1ccnc(F)c1)N1CC(F)(F)C1

Structure (SMILES): O=C(c1cc2cccnc2n1-c1ccc(Cl)c(F)c1)N1CC(F)C1
- Activity [6]: Non-Toxic

- inhibition [1]: 41%
Structure (SMILES): N#Cc1c(F)cc(-n2c(C(=O)N3CC(F)(F)C3)cc3cccnc32)cc1F

- inhibition [1]: 67%
Structure (SMILES): COc1ccc(-n2c(C(=O)N3CC(F)C3)cc3cccnc32)cc1

- inhibition [1]: 35%
Structure (SMILES): COc1c(F)cc(-n2c(C(=O)N3CC(F)(F)C3)cc3cccnc32)cc1F

- inhibition [1]: 70%
Structure (SMILES): O=C(NCc1ccco1)c1cc2cccnc2n1-c1ccc(Cl)c(Cl)c1

- IC50 [7]: 2.4 µM
Structure (SMILES): O=C(c1nc2ccccc2n1-c1ccc(Cl)c(Cl)c1)N1CC(F)C1

- inhibition [1]: 47%
Structure (SMILES): O=C(c1cc2cccnc2n1-c1ccc(Cl)cc1)N1CC(F)(F)C1

- inhibition [1]: 47%
Structure (SMILES): N#Cc1c(F)cc(-n2c(C(=O)NC3CC(F)(F)C3)cc3cccnc32)cc1F

- inhibition [1]: 58%
Structure (SMILES): O=C(c1cc2ccccc2n1-c1ccc(Cl)c(Cl)c1)N1CC(F)C1

- fraction unbound [2]: 0.113
- CLint scaled [3]: 33.3 mL/min/kg
- inhibition [1]: 48%
- CLint scaled [4]: 104 mL/min/kg
- fraction unbound [5]: 0.051
Structure (SMILES): O=C(c1cc2cccnc2n1-c1cc(F)c(Cl)c(F)c1)N1CC(F)(F)C1
- Activity [6]: Non-Toxic

- fraction unbound [2]: 0.011
- CLint scaled [3]: 172 mL/min/kg
- CLint scaled [4]: 551 mL/min/kg
- fraction unbound [5]: 0.006
Structure (SMILES): Cc1ccc(-n2c(C(=O)NC3CC3)cc3cccnc32)cc1Cl

- inhibition [1]: 77%
Structure (SMILES): COc1ccc(-n2c(C(=O)N3CC(F)C3)cc3cccnc32)cc1F

- inhibition [1]: 46%
Structure (SMILES): Cc1ccc(-c2c(C(=O)NC3CC3)sc3nccnc23)cc1Cl

- inhibition [1]: 48%
Structure (SMILES): O=C(c1cc2cccnc2n1-c1ccc(Cl)c(F)c1)N1CC(F)(F)C1

Structure (SMILES): COc1ccc(C2CNC(=O)C2)cc1OC1CCCC1 (stereo not drawn) [ROLIPRAM]
- Activity [6]: Non-Toxic

- IC50 [7]: 4.2 µM
Structure (SMILES): O=C(NC1CC1)c1nn2ccccc2c1-c1ccc(Cl)c(Cl)c1

- IC50 [7]: 9.4 µM
Structure (SMILES): Cc1ccc(-n2c(C(=O)NC3CC(F)C3)cc3cccnc32)cc1Cl (stereo not drawn)
- Activity [6]: Non-Toxic

- inhibition [1]: 23%
Structure (SMILES): O=C(NC1CC(F)(F)C1)c1cc2cccnc2n1-c1ccc(Cl)c(Cl)c1

- fraction unbound [2]: 0.049
- CLint scaled [3]: < 23.1 mL/min/kg
- CLint scaled [4]: 134 mL/min/kg
- fraction unbound [5]: 0.066
Structure (SMILES): COc1ncc(-n2c(C(=O)N3CC(F)C3)cc3cccnc32)cc1Cl
- Activity [6]: Non-Toxic

- inhibition [1]: 56%
Structure (SMILES): Cc1ccc(-c2c(C(=O)NC3CC3)n(C)c3cccnc23)cc1Cl

- fraction unbound [2]: 0.474
- CLint scaled [3]: < 23.1 mL/min/kg
- CLint scaled [4]: < 49.5 mL/min/kg
- fraction unbound [5]: 0.393
Structure (SMILES): O=C(c1cc2cccnc2n1-c1ccnc(F)c1)N1CC(F)C1

- fraction unbound [2]: 0.302
- CLint scaled [3]: < 23.1 mL/min/kg
- CLint scaled [4]: < 49.5 mL/min/kg
- fraction unbound [5]: 0.133
Structure (SMILES): COc1c(F)cc(-n2c(C(=O)N3CC(F)C3)cc3cccnc32)cc1F
- Activity [6]: Non-Toxic

- fraction unbound [2]: 0.085
- CLint scaled [3]: 29.6 mL/min/kg
- CLint scaled [4]: 150 mL/min/kg
- fraction unbound [5]: 0.056
Structure (SMILES): Cc1ccc(-n2c(C(=O)NC3CC3)nc3cccnc32)cc1Cl

- inhibition [1]: 47%
Structure (SMILES): Cc1ccc(-n2c(C(=O)N3CC(F)(F)C3)cc3cccnc32)cc1Cl
